Measurements reported in PMC10287566, “Signaling-specific inhibition of the CB1 receptor for cannabis use disorder: phase 1 and phase 2a randomized trials” (Nature Medicine, 2023).
Where two headings read alike, the source gives them in different places.

Key:
rats = test: Irwin test and body temperature (GLP); format: in vivo; settings: rats, GLP
Protocol: The study involved four groups of six male Wistar rats weighing between 154.0 g and 185.9 g. […] On study day, animals were first scored by the Irwin standardized observation battery, and body temperature was measured. […] Irwin scores and measurement of body temperature were done again at 1, 3, 6, 8 and 24 h after dose.

dogs = test: Blood pressure, heart rate, ECG and body temperature in conscious dogs (GLP); format: in vivo
Protocol: The dogs had telemetry transmitters for arterial blood pressure, body temperature and ECG measurements. The study was conducted in two parts.

mice [1] = test: THC-induced increase in psychomotor stimulation (open field); format: in vivo
mice [2] = test: THC-induced impairment of long-term memory (object recognition); format: in vivo
healthy volunteers = test: Phase 1 single-ascending-dose (SAD) study, safety
Protocol: Four single oral dose levels (0.2, 0.6, 2 and 6 mg) were given in the morning on day 1 in the SAD study, and three oral doses (0.6, 2 and 6 mg) were given in the morning of day 1 to day 7 in the MAD study, to independent dose cohorts. […] Each dose cohort comprised eight volunteers (six (5/1) active and two (1/1) placebo per dose level).
During the rest of the study, only volunteers with pathological values were excluded.
Participants were admitted to the research clinic at midday before dosing (day −1). In the SAD study, they remained in-house until day 8 for PK and PD samples and safety assessments. In the MAD study, participants remained in-house until day 14 and returned to the research facility on an outpatient basis to have PK and safety assessments at 216 h and 264 h (day 16 and day 18) after their last dose (day 7). Safety monitoring (physical examinations, vital sign measurements, 12-lead ECGs, clinical safety laboratory tests and AE monitoring) were performed throughout the studies. Psychometrics tests (Bond & Lader VAS, Addiction Research Center Inventory (49-item short form) (ARCI-49) and Profile of Mood States 65 self-report items (POMS-65)) and the Columbia-Suicide Severity Rating Scale (C-SSRS) test were performed at baseline, before dose and at 4 h and 24 h after dose on day 1 and day 7 (MAD study, only) and C-SSRS only at 24 h.
All participants who had AEs, whether considered associated with the use of the investigational product or not, were monitored for as long as needed to determine resolution.

[3] = MAD study, plasma pharmacokinetics; format: in vivo, human; settings: for Cmax / Tmax / half-life: human, plasma, oral; for Cmax: read-out: Cmax, mean (±SD); for Tmax: read-out: tmax, median (range)
Protocol: Samples were collected at the same timepoints on day 1 and day 7: before dose and 0.5, 1, 1.5, 2, 3, 4, 6, 8 and 12 h after dose. Additional samples were collected on day 2 to day 6 before dose (that is, 24 h from the previous dose) and on days […] (that is, 24, 48, 72, 96, 120, 144, 168, 216 and 264 h after the last dose at day 7).
For both SAD and MAD studies, the PK parameters were calculated using standard non-compartmental methods for those with sufficient plasma concentration data.

volunteers with CUD = test: Phase 2a study, plasma steroids, endocannabinoids, THC and metabolites; format: in vivo, human
Protocol: THC and its metabolites (11-OH-THC and 11-COOH-THC) were assessed at the same timepoints. […] THC and its metabolites analyses were performed using PD dataset (n = 13 for both doses).
PK parameters for AEF0117 were subject to descriptive statistics separately for each treatment group.
ALLO, DHEA, PREG and TESTO, as well as AEA and 2-AG, were measured. Data were analyzed using a global crossover MRMM analysis on the PD dataset (n = 13 per dose cohort).

human CB1 = human CB1 (Homo sapiens, UniProt P21554); test: THC-induced decrease in cAMP in CHO-hCB1 cells; format: cell-based; set-up: host or cells: CHO-K1
Protocol: CHO cells stably expressing the human CB1 receptor (CHO-hCB1) were used in these experiments (ES-110C, PerkinElmer).
CHO-hCB1 cells were treated by concomitantly adding THC and the test compound for 45 min. Forskolin (2.5 µM) was also simultaneously added in all the conditions tested to sustain cAMP basal level. At the end of the treatment, cells were lysed for cAMP quantification. All measures were performed in triplicate in one experiment.
The quantitative determination of cAMP was done using a competitive fluorescence immunoassay. Data were expressed as % of Δ fluorescence (ΔF) that was calculated as follows: ΔF% = (sample fluorescence − negative control fluorescence) / negative control fluorescence. These experiments were done by the CRO Fluofarma.

[4] = Increase in psychomotor stimulation
[5] = 0.6 mg/day, MAD Day 1, 0.6 mg/day
[6] = 0.6 mg/day, MAD Day 7, 0.6 mg/day

Chain of human CB1 (P21554 whole entry): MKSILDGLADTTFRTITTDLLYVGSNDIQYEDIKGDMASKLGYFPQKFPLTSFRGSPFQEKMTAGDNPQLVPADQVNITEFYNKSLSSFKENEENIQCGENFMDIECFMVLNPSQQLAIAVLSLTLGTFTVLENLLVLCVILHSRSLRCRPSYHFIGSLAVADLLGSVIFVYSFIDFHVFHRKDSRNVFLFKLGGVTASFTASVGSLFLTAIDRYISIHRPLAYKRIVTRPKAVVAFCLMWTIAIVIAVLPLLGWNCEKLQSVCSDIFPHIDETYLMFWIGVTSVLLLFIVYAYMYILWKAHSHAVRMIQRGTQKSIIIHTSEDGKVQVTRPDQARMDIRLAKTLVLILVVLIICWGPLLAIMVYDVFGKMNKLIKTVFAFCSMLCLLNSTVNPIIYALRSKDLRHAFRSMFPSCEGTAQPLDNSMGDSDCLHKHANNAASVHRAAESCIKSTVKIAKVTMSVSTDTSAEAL

COc1ccc(CO[C@H]2CC[C@@]3(C)C(=CC[C@H]4[C@@H]5CC[C@H](C(C)=O)[C@@]5(C)CC[C@@H]43)C2)cc1 [AEF0117, 3β-(4-methoxybenzyloxy)pregn-5-en-20-one]
adverse effects on behavior (Irwin test) and body temperature (rats): did not show any adverse effects
adverse effects on blood pressure, heart rate, ECG and body temperature (dogs): did not show any adverse effects
THC-increased psychomotor stimulation (mice [1]): inhibited
% Inhibition (mice [1]; [4]): 100%
ID50 (mice [1]; [4]): 0.36 µg/kg
ID100 (mice [1]; [4]): 1.5 µg/kg
THC's effects on long-term object recognition memory (mice [2]): inhibited
% Inhibition (mice [2]; Impairment of long-term memory): 100%
ID100 (mice [2]; Impairment of long-term memory): ≤ 5 µg/kg
Number of TEAEs (healthy volunteers; single 0.2 mg): 4 E
Number of participants with a TEAE leading to discontinuation (healthy volunteers; single 0.2 mg): 0 n (%)
Number of participants with an SAE (healthy volunteers; single 0.2 mg): 0 n (%)
Number of participants with at least one TEAE (healthy volunteers; single 0.2 mg): 2 (33.3) n (%)
Participants with TEAE: Mild (healthy volunteers; single 0.2 mg): 2 (33.3) n (%)
Participants with TEAE: Moderate (healthy volunteers; single 0.2 mg): 1 (16.7) n (%)
Participants with TEAE: Not related (healthy volunteers; single 0.2 mg): 1 (16.7) n (%)
Participants with TEAE: Severe (healthy volunteers; single 0.2 mg): 0 n (%)
TEAEs by SOC: Gastrointestinal disorders (healthy volunteers; single 0.2 mg): 2 (33.3) n (%)
TEAEs by SOC: Investigations (healthy volunteers; single 0.2 mg): 0 n (%)
TEAEs by SOC: Nervous system disorders (healthy volunteers; single 0.2 mg): 1 (16.7) n (%)
Number of TEAEs (healthy volunteers; single 0.6 mg): 0 E
Number of participants with a TEAE leading to discontinuation (healthy volunteers; single 0.6 mg): 0 n (%)
Number of participants with an SAE (healthy volunteers; single 0.6 mg): 0 n (%)
Number of participants with at least one TEAE (healthy volunteers; single 0.6 mg): 0 n (%)
Participants with TEAE: Mild (healthy volunteers; single 0.6 mg): 0 n (%)
Participants with TEAE: Moderate (healthy volunteers; single 0.6 mg): 0 n (%)
Participants with TEAE: Not related (healthy volunteers; single 0.6 mg): 0 n (%)
Participants with TEAE: Related (healthy volunteers; single 0.6 mg): 0 n (%)
Participants with TEAE: Severe (healthy volunteers; single 0.6 mg): 0 n (%)
TEAEs by SOC: Gastrointestinal disorders (healthy volunteers; single 0.6 mg): 0 n (%)
TEAEs by SOC: Investigations (healthy volunteers; single 0.6 mg): 0 n (%)
TEAEs by SOC: Nervous system disorders (healthy volunteers; single 0.6 mg): 0 n (%)
Number of TEAEs (healthy volunteers; single 2 mg): 2 E
Number of participants with a TEAE leading to discontinuation (healthy volunteers; single 2 mg): 0 n (%)
Number of participants with an SAE (healthy volunteers; single 2 mg): 0 n (%)
Number of participants with at least one TEAE (healthy volunteers; single 2 mg): 1 (8.3) n (%)
Participants with TEAE: Mild (healthy volunteers; single 2 mg): 1 (8.3) n (%)
Participants with TEAE: Moderate (healthy volunteers; single 2 mg): 0 n (%)
Participants with TEAE: Not related (healthy volunteers; single 2 mg): 0 n (%)
Participants with TEAE: Severe (healthy volunteers; single 2 mg): 0 n (%)
TEAEs by SOC: Gastrointestinal disorders (healthy volunteers; single 2 mg): 0 n (%)
TEAEs by SOC: Investigations (healthy volunteers; single 2 mg): 1 (8.3) n (%)
TEAEs by SOC: Nervous system disorders (healthy volunteers; single 2 mg): 0 n (%)
Number of TEAEs (healthy volunteers; single 6 mg): 0 E
Number of participants with a TEAE leading to discontinuation (healthy volunteers; single 6 mg): 0 n (%)
Number of participants with an SAE (healthy volunteers; single 6 mg): 0 n (%)
Number of participants with at least one TEAE (healthy volunteers; single 6 mg): 0 n (%)
Participants with TEAE: Mild (healthy volunteers; single 6 mg): 0 n (%)
Participants with TEAE: Moderate (healthy volunteers; single 6 mg): 0 n (%)
Participants with TEAE: Not related (healthy volunteers; single 6 mg): 0 n (%)
Participants with TEAE: Related (healthy volunteers; single 6 mg): 0 n (%)
Participants with TEAE: Severe (healthy volunteers; single 6 mg): 0 n (%)
TEAEs by SOC: Gastrointestinal disorders (healthy volunteers; single 6 mg): 0 n (%)
TEAEs by SOC: Investigations (healthy volunteers; single 6 mg): 0 n (%)
TEAEs by SOC: Nervous system disorders (healthy volunteers; single 6 mg): 0 n (%)
concentration at 264 h as share of Cmax at Day 7 ([3]; MAD, all doses): 4%
Cmax [3, 5]: 4.6 ± 1.4 ng/mL
Tmax [3, 5]: 3 h
half-life ([3]; 0.6 mg/day, MAD Day 7, 0.6 mg/day, 0-264 h, read-out: t½, min-max): 153 to 252 h
Cmax [3, 6]: 3.3 ± 0.3 ng/mL
Tmax [3, 6]: 3 h
Cmax ([3]; 2 mg/day, MAD Day 1, 2 mg/day): 11.6 ± 3.7 ng/mL
Tmax ([3]; 2 mg/day, MAD Day 1, 2 mg/day): 3 h
half-life ([3]; 2 mg/day, MAD Day 7, 2 mg/day, 0-264 h, read-out: t½, min-max): 152 to 240 h
Cmax ([3]; 2 mg/day, MAD Day 7, 2 mg/day): 14.5 ± 4.9 ng/mL
Tmax ([3]; 2 mg/day, MAD Day 7, 2 mg/day): 3 h
Cmax ([3]; 6 mg/day, MAD Day 1, 6 mg/day): 35.9 ± 13.5 ng/mL
Tmax ([3]; 6 mg/day, MAD Day 1, 6 mg/day): 3.5 h
half-life ([3]; 6 mg/day, MAD Day 7, 6 mg/day, 0-264 h, read-out: t½, min-max): 160 to 258 h
Cmax ([3]; 6 mg/day, MAD Day 7, 6 mg/day): 37.1 ± 7.3 ng/mL
Tmax ([3]; 6 mg/day, MAD Day 7, 6 mg/day): 2.5 h
half-life ([3]; humans, MAD study, range between participants, read-out: terminal half-life): 152 to 259 h
plasma THC and its metabolites, AEF0117 vs placebo periods (volunteers with CUD): no statistically significant differences
effect on THC's effects on cAMP (human CB1): without modifying
